The values below come from patent publication US11938115B2, “Benzoselenophene-based compound, pharmaceutical composition containing same, and antibody-drug conjugate” (priority 2020, dated 2024).

Non-standard residues stand in square brackets, D forms with d. Residues, ends and D or L forms follow the SMILES beside them. *: point of attachment. Dolaproine = CO[C@@H]([C@@H]1CCCN1)[C@@H](C)C(=O)O; Dil = CC[C@H](C)[C@H](NC)[C@@H](CC(=O)O)OC; X1 = C[C@@H](N*)[C@@H](O)c1ccccc1; NMeV = CN[C@H](C(=O)O)C(C)C

The test system of series [1] is glioblastoma cell line U87MG. Description: High-throughput screening, cell viability, U87MG. The format is cell-based. Particulars: seven days after drug treatment. Here is the method:
(§1) FIG. 11A, FIG. 11B and FIG. 11C show data confirming the cell viability inhibitory effect of seven types of payloads except Compound 3 (DS-24) on the glioblastoma cell line U87MG, the multiple myeloma cell line KMS11, and the bladder cancer cell line RT112, respectively. Also, FIG. 12A, FIG. 12B, FIG. 12C, FIG. 12D, FIG. 12E and FIG. 12F show data confirming the cell viability inhibitory effect of seven types of payloads except Compound 3 (DS-24) on 6 types of cells derived from a patient with glioblastoma, respectively.
(§2) After treatment with the drug diluted to 14 different concentrations based on 20 μM as the highest concentration, it was verified whether the effect is proportional depending on the drug concentration through the concentration graph for two repeated tests. The cell viability was analyzed seven days after drug treatment to calculate IC50 that inhibits 50% of the cell viability.

Series [2] deals with GBM#1 (Glioblastoma, PDC). Description: High-throughput screening, cell viability, GBM#1. The class given is cell-based. The conditions noted are these: seven days after drug treatment. Here is the method: as §1, §2
The test system of series [3] is B16F10 (Murine melanoma Cell line). Description: In vivo activity, B16F10 tumor volume. The conditions noted are these: 5 ug/kg, 50 ug/kg, 100 ug/kg, IV, twice a week. Also noted: species or system mouse.
Series [4] concerns Her2-positive human gastric cancer cells NCI-N87. Description: Cell growth inhibition assay (ATPlite), NCI-N87. Also noted: unit not given beside the values. The class given is cell-based. Particulars: 3 days of incubation. Here is the method: (§3) Her2-positive human gastric cancer cells NCI-N87 and human ovarian cancer cells SK-OV3 purchased from the American Type Culture Collection (ATCC; Manassas, VA, USA) were seeded into a 384-well plate at 500 cells per well. After plating for 2 hours, the cells were treated in quadruplicate with toxins in 5-fold and 14-point serial dilution series. After 3 days of incubation at 37° C. in a 5% CO2 humidified incubator, cell viability was checked using an adenosine triphosphate monitoring system based on firefly luciferase (ATPlite™ 1step, PerkinElmer, MA, USA). IC50 values were calculated as an average of four quadruplicated tests (GraphPad Prism 5.0, CA, and USA). FIG. 13A and FIG. 13B are graphs showing the cell viability of NCI-N87 depending on the concentrations of DS-24 and DS-26, respectively, and FIG. 14A and FIG. 14B are graphs showing the cell viability of SK-OV3 depending on the concentrations of DS-24 and DS-26, respectively.
In general terms: In ATP-based viability assays light output follows the ATP content of the culture.

Series [5] has as its system multiple myeloma cell line KMS11. Description: High-throughput screening, cell viability, KMS11. The class given is cell-based. The conditions noted are these: seven days after drug treatment. Here is the method:
as §1, §2

Series [6] has as its system bladder cancer cell line RT112. Description: High-throughput screening, cell viability, RT112. The class given is cell-based. Particulars: seven days after drug treatment. Here is the method: as §1, §2
Series [7] concerns GBM#4 (Glioblastoma, PDC). Description: High-throughput screening, cell viability, GBM#4. The class given is cell-based. The conditions noted are these: seven days after drug treatment. The protocol:
as §1, §2

Series [8] concerns NCI cell lines. Description: In vitro cell line activity, NCI NTP program. The class given is cell-based. Here is the method:
The activity of Compound 3 was checked by requesting a sample to the NCI NTP program.
Based on the results shown in FIG. 6, it was analyzed whether there was any statistical significance in the reactivity depending on cancer types in the cell lines for which the anticancer effect was confirmed by the NCI NTP program.

For series [9], the system named is human ovarian cancer cells SK-OV3. Description: Cell growth inhibition assay (ATPlite), SK-OV3. Particulars: 3 days of incubation. Also noted: unit not given beside the values. The format is cell-based. The protocol:
as §3

Series [10] has as its system cell lines and cells derived from a patient with glioblastoma. Description: High-throughput screening, comparison of payloads across cell lines and brain tumor patient-derived cells. The format is cell-based. Particulars: for cell viability inhibitory effect compared with the other payloads: all cells; for cell viability inhibitory effect on cells derived from a patient with glioblastoma compared to KMS11 and RT112: comparison between cells. Here is the method:
as §1, §2

The subject of series [11] is GBM#3 (Glioblastoma, PDC). Description: High-throughput screening, cell viability, GBM#3. The class given is cell-based. The conditions noted are these: seven days after drug treatment. Here is the method:
as §1, §2

Series [12] has as its system GBM#2 (Glioblastoma, PDC). Description: High-throughput screening, cell viability, GBM#2. Particulars: seven days after drug treatment. The class given is cell-based. The protocol:
as §1, §2

Series [13] in a line: Hydrophobic interaction chromatography (HIC) analysis. The class given is physicochemical. The conditions noted are these: inferred from HIC, DAR species appear as one.

In general, IC50 refers to the concentration at which inhibition is half-maximal. For the compound `COc1ccc2c(O)cc3c(c2c1)[C@H](CCl)CN3C(=O)c1cc2cc(NC(=O)CCN3CCOCC3)ccc2[se]1` [Compound 3, (S)—N-(2-(1-(chloromethyl)-5-hydroxy-8-methoxy-2,3-dihydro-1H-benzo[e]indole-3-carbonyl)benzo[b]selenophen-5-yl)-3-morpholinopropanamide], the IC50 stood at 0.0339 nM in [1] (Homo sapiens, U-87 MG, 168 h); 0.98 nM in series [2] (GBM1, 168 h); 0.0122 nM in series [5] (Homo sapiens, KMS-11, 168 h); 0.00837 nM in series [6] (Homo sapiens, RT-112, 168 h); 0.215 nM in series [7] (168 h); 0.0313 nM in [11] (GBM3, 168 h). Further, the concentration for half-maximal inhibition (IC50) in series [12] (GBM2, 168 h) came out at 0.0264 nM. The “in vivo activity (tumor volume)” value in [3] is on record as “in vivo activity even at a very low concentration”. For the same compound, in series [4], the “AUC (area under the curve), NCI-N87” value is 277. Moreover, the “TGI, sensitivity difference between cancer types” value in series [8] (non-small cell lung cancer, CNS cancer and melanoma compared to leukemia) is “tumor growth inhibition effect”. The “activity by cancer type” value in series [8] (non-small lung cancer, CNS cancer, melanoma, renal cancer) is given as “remarkably strong activity”. The “GI50 (Growth Inhibition 50%)” value in [8] (several cell lines) is “pM or less”. In addition, the “AUC (area under the curve), SK-OV3” value in series [9] is reported as 160. The “cell viability inhibitory effect compared with the other payloads” value in [10] was “highest cell viability inhibitory effect among the compared materials”.
Take `COc1ccc2c(OC(=O)N(CCN(C)C(=O)OCc3ccc(O[C@@H]4O[C@@H](C(=O)O)[C@H](OC(C)=O)[C@@H](OC(C)=O)[C@@H]4OC(C)=O)cc3)Cc3cn(CCOCCOCCOCCNC(=O)CCN4C(=O)C=CC4=O)nn3)cc3c(c2c1)[C@H](CCl)CN3C(=O)c1cc2cc(NC(=O)CCN3CCOCC3)ccc2[se]1` [Compound 3-3, (2R,3R,4R,5S,6S)-3,4,5-triacetoxy-6-(4-((((2-(((((S)-1-(chloromethyl)-8-methoxy-3-(5-(3-morpholinopropanamido)benzo[b]selenophene-2-carbonyl)-2,3-dihydro-1H-benzo[e]indol-5-yl)oxy)carbonyl)((1-(15-(2,5-dioxo-2,5-dihydro-1H-pyrrol-1-yl)-13-oxo-3,6,9-trioxa-12-azapentadecyl)-1H-1,2,3-triazol-4-yl)methyl)amino)ethyl)(methyl)carbamoyl)oxy)methyl)phenoxy)tetrahydro-2H-pyran-2-carboxylic Acid]: the “polarity and water solubility” value in [13] is “very high polarity and a good water solubility”.
On to `COc1cc2cc(c1Cl)N(C)C(=O)C[C@H](OC(=O)[C@H](C)N(C)C(=O)CCS)[C@]1(C)O[C@H]1[C@H](C)[C@@H]1C[C@@](O)(NC(=O)O1)[C@H](OC)/C=C/C=C(\C)C2` [DM1], for which the IC50 in series [1] amounted to 13.3 nM; in series [2], 133 nM; in [5] it was 0.0441 nM; in [6], 0.0431 nM; in [7], 92.1 nM; in series [12], 95.9 nM. Also, in [10], the “cell viability inhibitory effect on cells derived from a patient with glioblastoma compared to KMS11 and RT112” value is reported as “remarkable decrease in the cell viability inhibitory effect”.
Take `COc1cc2cc(c1Cl)N(C)C(=O)C[C@H](OC(=O)[C@H](C)N(C)C(=O)CCC(C)(C)S)[C@]1(C)O[C@H]1[C@H](C)[C@@H]1C[C@@](O)(NC(=O)O1)[C@H](OC)/C=C/C=C(\C)C2` [DM4]: the half-maximal inhibitory concentration (IC50) was determined as 1.51 nM in series [1]; 29.8 nM in series [2]; 0.0229 nM in series [5]; 0.0202 nM in [6]; 8.15 nM in [7]; 53.1 nM in series [12]. In addition, the “cell viability inhibitory effect on cells derived from a patient with glioblastoma compared to KMS11 and RT112” value in series [10] is reported as “remarkable decrease in the cell viability inhibitory effect”.
With `CC[C@H](C)[C@@H]([C@@H](CC(=O)N1CCC[C@H]1[C@H](OC)[C@@H](C)C(=O)N[C@H](C)[C@@H](O)c1ccccc1)OC)N(C)C(=O)[C@@H](NC(=O)[C@@H](NC)C(C)C)C(C)C` [MMAE] (H-[NMeV]V[Dil][Dolaproine]-X1), the IC50 in series [1] is 3.39 nM; in series [2], 51.6 nM; in series [5], 0.153 nM; in series [6], 0.259 nM; in series [7], 53.3 nM; in series [12], 15 nM. In addition, the “cell viability inhibitory effect on cells derived from a patient with glioblastoma compared to KMS11 and RT112” value in series [10] is recorded as “remarkable decrease in the cell viability inhibitory effect”.
For the compound `CC[C@H](C)[C@@H]([C@@H](CC(=O)N1CCC[C@H]1[C@H](OC)[C@@H](C)C(=O)N[C@@H](Cc1ccccc1)C(=O)O)OC)N(C)C(=O)[C@@H](NC(=O)[C@@H](NC)C(C)C)C(C)C` [MMAF] (HELM PEPTIDE1{[meV].V.[CC[C@H](C)[C@@H]([C@@H](CC(=O)[*:2])OC)N(C)[*:1]].[CO[C@H]([C@@H](C)C(=O)[*:2])[C@@H]1CCCN1[*:1]].F}$$$$V2.0), the IC50 was 353 nM in series [1]; 16900 nM in series [2]; 91.4 nM in series [5]; 112 nM in series [6]; 8860 nM in [7]; 31100 nM in [11]. Also, in [12], the IC50 amounted to 1360 nM. Moreover, the “cell viability inhibitory effect on cells derived from a patient with glioblastoma compared to KMS11 and RT112” value in series [10] is “remarkable decrease in the cell viability inhibitory effect”.
With `CCc1c2c(nc3ccc(O)cc13)-c1cc3c(c(=O)n1C2)COC(=O)[C@]3(O)CC` [SN-38], the IC50 stood at 67.8 nM in series [1]; 128 nM in series [2]; 169 nM in series [5]; 15.6 nM in [6]; 146 nM in series [7]; 131 nM in [11]. The compound also gave an IC50 in [12] of 97 nM. Moreover, the “cell viability inhibitory effect compared with the other payloads” value in series [10] was “lower cell viability inhibitory effect than the other payloads”.
